According to patent publication US20160205982A1, “LIFE ENHANCING BEVERAGES” (REOXCYN DISCOVERIES GROUP, INC., priority 2013, published 2016):

Experiments:
NRF2 = assay: Western blot of NRF2 in nuclear extracts of HMVEC-L; type: cell-based, human; settings: H2O2 30 min, positive control
Description: (§1) 8. A Western Blot analysis was done on extra-nuclear and intra-nuclear fractions, separated by differential centrifugation, of serum starved HMVEC-L cell cultures exposed to <1% ASEA compared with a positive hydrogen peroxide control to determine phosphorylation events (oxidant action) in the extra-nuclear fraction and NRF2 (antioxidant transcription) in the intra-nuclear fraction at 0, 30, 60, 90 and 120 min. intervals.
(§2) Experimental Methods for Western Blot Validation of NRF2 Nuclear Accumulation: HMVEC-L were treated with 1% ASEA, nuclear extracts were separated through centrifugal differentiation from the extra-nuclear cytosol at 30, 60 and 120 min and subjected to Western Blot analysis for NRF2. In the Western blot experiment the extra-nuclear fraction was probed for phosphorylated proteins using a combination of anti-phospho serine, threonine and tyrosine antibodies. Virtually all cellular processes are regulated by posttranslational modifications and protein phosphorylation is a prevalent mechanism. Observable changes in protein phosphorylation can lead to a mechanistic understanding of the cellular processes perturbed by ASEA and provide a defined endpoint to better define dose-dependent regulation of cell function by ASEA in vitro, as well as provide a potential candidate molecular marker that may be used to provide in vitro-in vivo correlates. […]

[1] = system: phosphorylated proteins (extra-nuclear fraction); assay: Western blot of protein phosphorylation in extra-nuclear fraction of HMVEC-L; type: cell-based, human; settings: H2O2 treatment
Description: as §1, §2

With OO [H2O2, Hydrogen peroxide] the “NRF2 levels in nuclear extracts” value (NRF2) was “did not increase” and the “phosphorylation of the protein detected in extra-nuclear fraction” value [1] was “marked increase”.
